Results on 19 compounds are retold here after US4206117A, “Pyridinyl aminoalkyl ethers” (BASF Aktiengesellschaft, priority 1977, dated 1980).

The subject of data set [1] is Aconitineinduced arrhythmia, rats. Briefly: animal or person. It is filed as in vivo, rats (Sprague Dawley). To be noted: for Maximum action: Prolongation of the duration of aconitine infusion, Δ% / R.M.A. (relative maximum activity): at the highest nontoxic dose; for Maximum action: Prolongation of the duration of aconitine infusion, Δ% / Maximum action: Dose (highest nontoxic dose): oral, rats; for R.M.A. (relative maximum activity) / R.A. (relative activity): quinidine = 1.00; for ED50 / Emax: Rattus norvegicus, po; for ED50: 1 h, read-out: Effective dose ED 50 (extends the duration of aconitine infusion by 50%); for Emax: read-out: R.M.A. (relative maximum activity). Here is the method:
(§1) To determine the anti-arrhythmic activity, the drugs were administered orally to rats (Sprague Dawley, weight from 180 to 240 g) 45 minutes before the start of the narcosis.
The animals were narcotized with thiobutabartial (100 mg/kg administered intraperitoneally). The arrhythmogenic substance used was aconitine, which was administered by intravenous infusion (at a rate of 0.005 mg/kg.min) 60 minutes after administration of the test substance.
For a quantitative evaluation of the linear relation between log dose (mg/kg) of the test substances and relative prolongation of the duration of aconitine infusion (Δ%), the dose which extended the duration of infusion by 50% (ED 50) was determined.

Data set [2] is described as follows: Acute toxicity, intraperitoneal administration. The settings on record: mouse, in vivo, ip, female Swiss mice, within 24 hours, read-out: Acute toxicity LD 50. As for the experimental part:
(§2) The acute toxicity was determined on groups of 10 or 20 female Swiss mice, weighing 20-26 g, the compounds being administered intraperitoneally.

The nature of data set [3]: Therapeutic range, quotient of LD 50 (mice) and ED 50 (rats). It is filed as in vivo. The settings on record: in vivo; LD 50 mice i.p. / ED 50 rats oral. Here is the method: as §1
(§3) The animals were narcotized with thiobutabartial (100 mg/kg administered intraperitoneally). The arrhythmogenic substance used was aconitine, which was administered by intravenous infusion (at a rate of 0.005 mg/kg.min) 60 minutes after administration of the test substance. In the case of untreated animals (N=30), arrhythmias occurred after an average of 3.7±0.9 minutes, the commencement of which can be delayed by anti-arrhythmic agents, the delay depending on the dosage.
(§4) For a quantitative evaluation of the linear relation between log dose (mg/kg) of the test substances and relative prolongation of the duration of aconitine infusion (Δ%), the dose which extended the duration of infusion by 50% (ED 50) was determined. The prior art anti-arrhythmic agent quinidine served as a comparative substance.
as §2

Data set [4] has as its system Aconitineinduced arrhythmia, rats. Described as above. To be noted: relative to quinidine. The format is in vivo. Here is the method: as §1, §3, §4, §2

As to `Cc1nc(Cc2ccccc2)c2c(c1OCCC(C)CCNC(C)C)COC2` (stereo not drawn) [Example 55], in data set [1], the “Maximum action: Prolongation of the duration of aconitine infusion, Δ%” value (“Maximum action: Prolongation … Δ%” for short) is 333%; the “R.M.A. (relative maximum activity)” value turned out to be 2.50; the “Maximum action: Dose (highest nontoxic dose)” value (“Maximum action: Dose” below) stood at 100 mg/kg; the “R.A. (relative activity)” value worked out at 3.47.

For `Cc1nc(Cc2ccccc2)c2c(c1OCCCCNC(C)(C)C)COC2` [Example 61], in data set [1], the “Maximum action: Prolongation … Δ%” value turned out to be 298%; the “R.M.A. (relative maximum activity)” value was determined as 2.24; the “Maximum action: Dose” value was determined as 46.4 mg/kg; the “R.A. (relative activity)” value worked out at 4.60.

In the case of `CN(C)CCCOc1c(Cc2ccccc2)nc(Cc2ccccc2)c2c1COC2` [Example 32], in data set [1], the “Maximum action: Prolongation … Δ%” value amounted to 319%; the “R.M.A. (relative maximum activity)” value is 2.40; the “Maximum action: Dose” value is given as 215 mg/kg; the “R.A. (relative activity)” value was 2.84.

On to `Cc1nc(Cc2ccccc2)c2c(c1OCCCN1CCNCC1)COC2` [Example 43], for which, in data set [1], the ED50 was determined as 28.5 mg/kg; the Emax amounted to 116%; the “Maximum action: Prolongation … Δ%” value was determined as 154%; the “Maximum action: Dose” value came out at 46.4 mg/kg. For the same compound, the “R.A. (relative activity)” value in data set [1] was found to be 1.48. The “effect achieved with the maximum dose, times as great as that of quinidine” value in data set [1] (relative to quinidine) came to 1.2 times. The LD50 at 24 h in data set [2] is about 147 mg/kg. In addition, the selectivity ratio in data set [3] was about 5.16.

`Cc1nc(Cc2ccccc2)c2c(c1OCCCCNC(C)C)COC2` [Example 47]: in data set [1], the “Maximum action: Prolongation … Δ%” value worked out at 358%; the “R.M.A. (relative maximum activity)” value turned out to be 2.69; the “Maximum action: Dose” value worked out at 100 mg/kg; the “R.A. (relative activity)” value is 7.47. Also, the “anti-arrhythmic action, times more powerful than that of quinidine” value in data set [1] (relative to quinidine) is 7.5 times. Moreover, the “therapeutic range, times as great as that of quinidine” value in data set [4] is on record as 4.1 times.

For the compound `Cc1nc(Cc2ccccc2)c2c(c1OCCN(C)C)COC2.Cl.Cl` [Example 1, 4-benzyl-6-methyl-1,3-dihydro-furo[3,4-c]pyridin-7-yl β-dimethylaminoethyl ether bis-hydrochloride], in data set [1], the ED50 was 31 mg/kg; the Emax came out at 138%; the “Maximum action: Prolongation … Δ%” value amounted to 184%; the “Maximum action: Dose” value amounted to 68.1 mg/kg. For the same compound, the “R.A. (relative activity)” value in data set [1] was determined as 1.36. The LD50 at 24 h in data set [2] is about 147 mg/kg. Moreover, the selectivity ratio in data set [3] was about 4.74.

Take `Cc1nc(Cc2ccccc2)c2c(c1OCCCCNCCC(C)(C)O)COC2` [Example 68]: in data set [1], the ED50 was determined as 15.8 mg/kg; the Emax came to 181%; the “Maximum action: Prolongation … Δ%” value was found to be 241%; the “Maximum action: Dose” value came to 100 mg/kg. Besides, in data set [1], the “R.A. (relative activity)” value is listed as 2.70. In addition, the LD50 at 24 h in data set [2] was about 68.1 mg/kg. Besides, the selectivity ratio in data set [3] was about 4.31. Besides, the “therapeutic range compared with that of quinidine (in words)” value in data set [4] is reported as “as great as”.

As to `CCOC(=O)c1c(Cc2ccccc2)nc(C)c(OCCCN(C)C)c1C(=O)OCC` [Example 25], in data set [1], the ED50 turned out to be 15.9 mg/kg; the Emax stood at 147%; the “Maximum action: Prolongation … Δ%” value was 195%; the “Maximum action: Dose” value was 100 mg/kg. Moreover, the “R.A. (relative activity)” value in data set [1] came to 2.67. Moreover, the LD50 at 24 h in data set [2] is 137 mg/kg. Moreover, the selectivity ratio in data set [3] is 8.62.

In the case of `CCc1nc(Cc2ccccc2)c2c(c1OCCCN(C)C)COC2` [Example 29], in data set [1], the ED50 worked out at 18.1 mg/kg; the Emax was 204%; the “Maximum action: Prolongation … Δ%” value came to 271%; the “Maximum action: Dose” value is 215 mg/kg. The “R.A. (relative activity)” value in data set [1] turned out to be 2.34. In data set [2], the LD50 at 24 h is 104 mg/kg. Moreover, the selectivity ratio in data set [3] is 5.75.

In the case of `CCC(C)NCCCCOc1c(C)nc(Cc2ccccc2)c2c1COC2` (stereo not drawn) [Example 60], in data set [1], the ED50 turned out to be 21.1 mg/kg; the Emax was found to be 185%; the “Maximum action: Prolongation … Δ%” value is listed as 246%; the “Maximum action: Dose” value turned out to be 100 mg/kg. Further, the “R.A. (relative activity)” value in data set [1] was determined as 2.00. For the same compound, in data set [2], the LD50 at 24 h worked out at 101 mg/kg. Further, the selectivity ratio in data set [3] came to 4.79.

Turning to `Cc1nc(Cc2ccccc2)c2c(c1OCCCCN(C(C)C)C(C)C)COC2` [Example 64], in data set [1], the ED50 stood at 21.2 mg/kg; the Emax amounted to 238%; the “Maximum action: Prolongation … Δ%” value worked out at 317%; the “Maximum action: Dose” value turned out to be 100 mg/kg. Besides, the “R.A. (relative activity)” value in data set [1] is recorded as 2.01. In data set [2], the LD50 at 24 h is 156 mg/kg. Besides, in data set [3], the selectivity ratio was determined as 7.36.

As to `Cc1nc(Cc2ccccc2)c2c(c1OCCCCCNC(C)C)COC2` [Example 52], in data set [1], the ED50 was 16 mg/kg; the Emax was found to be 169%; the “Maximum action: Prolongation … Δ%” value was 225%; the “Maximum action: Dose” value turned out to be 215 mg/kg. Further, the “R.A. (relative activity)” value in data set [1] was found to be 2.64. Also, the LD50 at 24 h in data set [2] amounted to 104 mg/kg. Also, the selectivity ratio in data set [3] came out at 6.5.

With `COC(=O)c1c(Cc2ccccc2)nc(C)c(OCCCN(C)C)c1C(=O)OC` [Example 18], in data set [1], the ED50 is 9.82 mg/kg; the Emax is 222%; the “Maximum action: Prolongation … Δ%” value came out at 295%; the “Maximum action: Dose” value was 215 mg/kg. In addition, in data set [1], the “R.A. (relative activity)” value came to 4.35. For the same compound, the LD50 at 24 h in data set [2] is 170 mg/kg. Also, the selectivity ratio in data set [3] is 17.3.

In the case of `CCCN(CCC)CCCOc1c(C)nc(Cc2ccccc2)c2c1COC2` [Example 36], in data set [1], the ED50 worked out at 21 mg/kg; the Emax is 165%; the “Maximum action: Prolongation … Δ%” value amounted to 219%; the “Maximum action: Dose” value is 100 mg/kg. In addition, the “R.A. (relative activity)” value in data set [1] is listed as 2.01. Further, in data set [2], the LD50 at 24 h came out at 180 mg/kg. In addition, in data set [3], the selectivity ratio worked out at 8.57.

For `C=C[C@H]1C[N@@]2CC[C@H]1C[C@@H]2[C@@H](O)c1ccnc2ccc(OC)cc12` [Quinidine, quinidine, reference compound], the “Maximum action: Prolongation … Δ%” value in data set [1] is 133%.

For `CCN(CC)CCC(C)CCOc1c(C)nc(Cc2ccccc2)c2c1COC2` (stereo not drawn) [Example 57], in data set [1], the “Maximum action: Prolongation … Δ%” value was 261%; the “R.M.A. (relative maximum activity)” value amounted to 1.96; the “Maximum action: Dose” value is reported as 100 mg/kg; the “R.A. (relative activity)” value is 3.74.

Regarding `Cc1nc(Cc2ccccc2)c2c(c1OCCCNC(C)C)COC2` [Example 34, 4-benzyl-6-methyl-1,3-dihydro-furo[3,4-c]pyridin-7-yl 3-isopropylaminopropyl ether], in data set [1], the “Maximum action: Prolongation … Δ%” value came out at 457%; the “R.M.A. (relative maximum activity)” value is reported as 3.44; the “Maximum action: Dose” value worked out at 215 mg/kg; the “R.A. (relative activity)” value worked out at 1.46. Further, the “effect achieved with the maximum dose, times as great as that of quinidine” value in data set [1] (relative to quinidine) stood at 3.4 times.

Turning to `Cc1nc(Cc2ccccc2)c2c(c1OCC(O)CNC(C)C)COC2.Cl` (stereo not drawn) [Example 69, 4-benzyl-6-methyl-1,3-dihydrofuro[3,4-c]pyridin-7-yl 2-hydroxy-3-isopropylaminopropyl ether hydrochloride], in data set [1], the ED50 was 23 mg/kg; the Emax is 164%; the “Maximum action: Prolongation … Δ%” value was 218%; the “Maximum action: Dose” value is given as 464 mg/kg. Further, the “R.A. (relative activity)” value in data set [1] is reported as 1.84. Further, the LD50 at 24 h in data set [2] came to 107 mg/kg. For the same compound, in data set [3], the selectivity ratio came to 4.65.

For the compound `CCNCCCCOc1c(C)nc(Cc2ccccc2)c2c1COC2` [Example 58], in data set [1], the ED50 stood at 18.8 mg/kg; the Emax was 140%; the “Maximum action: Prolongation … Δ%” value was 186%; the “Maximum action: Dose” value worked out at 100 mg/kg. For the same compound, in data set [1], the “R.A. (relative activity)” value is on record as 2.27. For the same compound, the LD50 at 24 h in data set [2] is 114 mg/kg. Also, the selectivity ratio in data set [3] stood at 6.06.
